According to patent US4610989A, “Analgesic composition containing a mixture of 6-chloro-α-methyl-carbazole-2-acetic acid plus an opiate as the active agent” (priority 1985, dated 1986):
Where “and” joins values, the source holds several entries; their conditions need not be identical. Equal values may be shown once. Read-outs that look alike come from different tables or passages of the source.

System: phenylquinone induced writhing
Format: in vivo, male CF-1 mice
Details: for ED50 (95% Conf. Limits): p.o.; for ED50 (95% Conf. Limits) / Oral ED50 (95% Confidence Limits) / Oral Ed50: given alone; for Oral ED50 (95% Confidence Limits): Table II; for % Inhibition / No. Writhing Episodes: alone
Method: The phenylquinone was dissolved in 5% ethyl alcohol and distilled water, gently heated to 37° C. and kept in a brown stoppered bottle to prevent deterioration. The test compounds were administered orally, in rapid succession, in distilled water 15 minutes prior to the phenylquinone.
The means and standard deviations computed during this analysis were then analyzed by "parallel line bioassay" that compared the opiate alkaloid alone in graded doses against, in turn, each combination of a range of opiate alkaloid doses plus a constant dose of carbazole compound. […] The opiate alkaloid dose scale here was always logarithmic.
The sequence of treatments in this study was not random. Rather, the ED50 for opiate alkaloid alone was determined. After this, combination experiments were conducted in which the carbazole racemic 6-chloro-α-methyl-carbazole-2-acetic acid, was administered at a constant dose and the ED50 of opiate alkaloid was redetermined in the presence of racemic 6-chloro-α-methyl-carbazole-2-acetic acid.
Inhibition of phenylquinone induced writhing by oxycodone potentiated by 6-chloro-α-methyl carbazole-2-acetic acid was determined by the procedure described hereinabove with one change. […] This transformation consisted of the [(square root of the number of writhes)+(square root of the number of writhes+1)] and is commonly employed with data that are distributed in a Poisson distribution.
Inhibition of phenylquinone induced writhing by morphine potentiated by 6-chloro-α-methyl-carbazole-2-acetic acid was determined by the procedure described hereinabove with one further change. […] This analysis was carried out on the set of values representing the percent of inhibition of writhing observed at each dose, as defined above, in any given assay.

[1] = Table I, regression analysis and Fieller's Theorem
[2] = Table III, square-root transformed writhes
[3] = Table V, Litchfield and Wilcoxon

CC(C(=O)O)c1ccc2c(c1)[nH]c1ccc(Cl)cc12 (racemic) [Compound A, 6-chloro-α-methyl-carbazole-2-acetic acid]
ED50 (95% Conf. Limits) [1]: 48.8 (25.7-72.0) mg/kg
Oral ED50 (95% Confidence Limits): 48.8 (25.7-72.0)
ED50 (95% Conf. Limits) [2]: 41.9 (33.5-50.0) mg/kg
Oral Ed50 (Table IV): 41.9(33.5-50.0)
ED50 (95% Conf. Limits) [3]: 54(27-108) mg/kg
Oral Ed50 (Table VI): 54(27-108)
% Inhibition (oral dose 25): 17% and 18% and 29%
No. Writhing Episodes (oral dose 25): 91 and 103 and 86
% Inhibition (oral dose 50): 58% and 48% and 51%
No. Writhing Episodes (oral dose 50): 47 and 66 and 59
% Inhibition (oral dose 100): 87% and 73% and 74%
% Inhibition (oral dose 200): 96% and 90% and 91%

COc1ccc2c3c1O[C@H]1[C@@H](O)C=C[C@H]4[C@@H](C2)N(C)CC[C@@]341 [Codeine, codeine]
ED50 (95% Conf. Limits) [1]: 9.2 (6.6-11.9) mg/kg
Oral ED50 (95% Confidence Limits): 9.2 (6.6-11.9)
% Inhibition (oral dose 5): 19%
No. Writhing Episodes (oral dose 5): 92
% Inhibition (oral dose 10): 62%
No. Writhing Episodes (oral dose 10): 43
% Inhibition (oral dose 20): 86%
No. Writhing Episodes (oral dose 20): 16
% Inhibition (oral dose 40): 98%
No. Writhing Episodes (oral dose 40): 2

CN1CC[C@]23c4c5ccc(O)c4O[C@H]2[C@@H](O)C=C[C@H]3[C@H]1C5 [Morphine, morphine]
ED50 (95% Conf. Limits) [3]: 2.5(1-4) mg/kg
Oral Ed50 (Table VI): 2.5(1-4)
% Inhibition (oral dose 1.25): 21%
% Inhibition (oral dose 2.5): 47%
% Inhibition (oral dose 5): 83%
% Inhibition (oral dose 10): 95%

COc1ccc2c3c1O[C@H]1C(=O)CC[C@@]4(O)[C@@H](C2)N(C)CC[C@]314 [Oxycodone, oxycodone]
ED50 (95% Conf. Limits) [2]: 0.25 (0.19-0.32) mg/kg
Oral Ed50 (Table IV): 0.25(0.19-0.32)
% Inhibition (oral dose 0.125): 23%
No. Writhing Episodes (oral dose 0.125): 87
% Inhibition (oral dose 0.25): 43%
No. Writhing Episodes (oral dose 0.25): 64
% Inhibition (oral dose 0.5): 73%
No. Writhing Episodes (oral dose 0.5): 31
% Inhibition (oral dose 1): 88%
No. Writhing Episodes (oral dose 1): 14
% Inhibition (oral dose 2): 96%
No. Writhing Episodes (oral dose 2): 5
